According to ChEMBL document CHEMBL3120157, “Structures and solution conformational dynamics of stylissamides G and H from the Bahamian sponge Stylissa caribica” (J Nat Prod, 2014):
pEC50: −log10 of the molar value. Residues, ends and D or L forms follow the SMILES beside them.

Test system: HCT-116
Experiment: Cytotoxicity against human HCT116 cells assessed as cell viability by MTS assay
Type: functional, cell-based

Compound | pEC50
CC[C@H](C)[C@@H]1NC(=O)[C@H](CC(C)C)NC(=O)[C@@H]2CCCN2C(=O)[C@H](Cc2ccccc2)NC(=O)[C@@H]2CCCN2C(=O)[C@H](Cc2ccccc2)NC(=O)[C@@H]2CCCN2C1=O (cyclo(FPFPLIP)) | < 3.70
CC[C@H](C)[C@@H]1NC(=O)[C@@H]2CCCN2C(=O)[C@H](Cc2c[nH]c3ccccc23)NC(=O)[C@@H]2CCCN2C(=O)[C@H](C(C)C)NC(=O)[C@H](Cc2ccccc2)NC(=O)[C@H](CO)NC1=O (cyclo(FVPWPIS)) | 5.24
